Values joined by “and” are separate entries in the source; they are usually repeats but may differ in a detail not shown here. Identical values can stand only once. Like-named read-outs stand apart in the source and are kept apart here.
Legend:
[1] = Plasma clearance half-life and oral bioavailability (AUC oral vs iv) in rat; format: in vivo
From the text: (§1) The third data column reports the magnitude of the increase in the amplitude of the EPSP at the lowest concentrations that produced a significant increase. The characteristic of a compound to produce an increase in the EPSP response has been a reliable predictor of the ability to improve memory in the 8-arm radial maze task.
*Plasma clearance following iv administration in rat
^# AUC for oral administration as a percentage of AUC for iv

AMPA receptors [2] = assay: Field EPSP response in rat hippocampal slices (CA1); format: cell-based, rat (Sprague-Dawley); settings: for EPSP Response (percentage increase in the area of the EPSP response): rat hippocampal slices
Procedure: The physiological effects of invention compounds can be tested in vitro with slices of rat hippocampus according to the following procedure. Excitatory responses (field EPSPs) are measured in hippocampal slices, which are maintained in a recording chamber continuously perfused with artificial cerebrospinal fluid (ACSF). During a 15-30 minute interval, the perfusion medium is switched to one containing various concentrations of the test compounds. Responses collected immediately before and at the end of drug perfusion were superimposed in order to calculate both the percent increase in EPSP amplitude and percent increase in the width of the response at one-half the peak height (half-width).
To conduct these tests, the hippocampus was removed from anesthetized, 2 month old Sprague-Dawley rats and in vitro slices (400 micrometers thick) were prepared and maintained in an interface chamber at 35° C. using conventional techniques [see, for example, Dunwiddie and Lynch, J. Physiol. 276: 353-367 (1978)]. The chamber was constantly perfused at 0.5 mL/min with ACSF containing (in mM): NaCl 124, KCl 3, KH2 PO4 1.25, MgSO4 2.5, CaCl2 3.4, NaHCO3 26, glucose 10 and L-ascorbate 2. A bipolar nichrome stimulating electrode was positioned in the dendritic layer (stratum radiatum) of the hippocampal subfield CA1 close to the border of subfield CA3.
Current pulses (0.1 msec) through the stimulating electrode activate a population of the Schaffer-commissural (SC) fibers that arise from neurons in the subdivision CA3 and terminate in synapses on the dendrites of CA1 neurons. Activation of these synapses causes them to release the transmitter glutamate. Glutamate binds to the post-synaptic AMPA receptors which then transiently open an associated ion channel and permit a sodium current to enter the postsynaptic cell. This current results in a voltage in the extracellular space (the field excitatory post-synaptic potential or field "EPSP") which is recorded by a high impedance recording electrode positioned in the middle of the stratum radiatum of CA1.
For the experiments summarized Table 1, the intensity of the stimulation current was adjusted to produce half-maximal EPSPs (typically about 1.5-2.0 mV). Paired stimulation pulses were given every 40 sec with an interpulse interval of 200 msec (see below). The field EPSPs of the second response were digitized and analyzed to determine amplitude, half-width, and response area. If the responses were stable for 15-30 minutes (baseline), test compounds were added to the perfusion lines for a period of about 15 minutes. The perfusion was then changed back to regular ACSF.
Paired-pulse stimulation was used since stimulation of the SC fibers, in part, activates interneurons which generate an inhibitory postsynaptic potential (IPSP) in the pyramidal cells of CA1. This feed forward IPSP typically sets in after the EPSP reaches its peak. It accelerates the repolarization and shortens the decay phase of the EPSP, and thus could partially mask the effects of the test compounds. One of the relevant features of the feed-forward IPSP is that it can not be reactivated for several hundred milliseconds following a stimulation pulse. […]
The field EPSP recorded in field CA1 after stimulation of CA3 axons is known to be mediated by AMPA receptors: the receptors are present in the synapses [Kessler et al., Brain Res. 560: 337-341 (1991)] and drugs that selectively block the receptor selectively block the field EPSP [Muller et al., Science, supra]. […]

[3] = Memory enhancement in eight-arm radial maze; format: in vivo; settings: rat, read-out: Maze MED (Minimum Effective Dose to improve performance of rats in the eight-arm radial maze)
From the text: as §1
^.dagger-dbl. Minimum Effective Dose to improve performance of rats i
the eightarm radial maze.

AMPA receptors [4] = settings: metabolite; cited from earlier work
[5] = comparison compound, Example 1 of U.S. Pat. No. 5,736,543; rat; cited from earlier work

What does the source list for `O=C1CCC2Oc3cc4c(cc3CN12)OCO4` (centres unmarked) [Compound 1, 5a,6,7,8-Tetrahydro-1,3-dioxolo[4,5-g]pyrrolo[2,1-b][1,3]benzoxazine-8(10H)-one]?
half-life ([1]; iv administration): 58 min; bioavailability ([1]; oral vs iv, read-out: Bioavailability (AUC for oral administration as a percentage of AUC for iv)): 100%; EPSP Response (percentage increase in the area of the EPSP response) (AMPA receptors [2]; 300 μM): 20% and 25%

For `O=C1CCC2Oc3cc4c(cc3CN12)OCCO4` (centres unmarked) [Compound 2, 6a,7,8,9-Tetrahydro-1,4-dioxin[2,3-g]pyrrolo[2,1-b][1,3]benzoxazine-9(11H)-one], which “EPSP Response (percentage increase in the area of the EPSP response)” value (AMPA receptors [2]; 30 μM) is on record?
Its value is 20%.

What about the minimal effective dose [3] of the same compound?
Its minimal effective dose is 0.1 mg/kg.

For `COc1ccc(C(=O)NCCCC(=O)O)cc1` [anisoyl-GABA], which Aniracetam-like effects (AMPA receptors [4]) is on record?
Its Aniracetam-like effects is “only weak aniracetam-like effects”.

What does the source list for `O=C1CCC2Oc3cc4c(cc3C(=O)N12)OCO4` (centres unmarked) [Compound 4, 5a,6,7,8-Tetrahydro-1,3-dioxolo[4,5-g]pyrrolo[2,1-b][1,3]benzoxazine-8,10(10H)-dione]?
Activity in the slice model, in words (AMPA receptors [2]; 300 μM): inactive; EPSP Response (percentage increase in the area of the EPSP response) (AMPA receptors [2]; 300 μM): 0%

Which bioavailability [5] does the source give for `O=C1c2cc3c(cc2OC2CCCN12)OCO3` (centres unmarked) [Example 1 of U.S. Pat. No. 5,736,543] here?
Its bioavailability is 35%.

And the half-life [5]?
The half-life was 31 min.

With `O=C1CCCC2Oc3cc4c(cc3CN12)OCCO4` (centres unmarked) [Compound 3, 6a,7,8,9-Tetrahydro-1,4-dioxan[2,3-g]pyrido[2,1-b][1,3]benzoxazine-10(10H,12H)-dione] as the compound, how does the “EPSP Response (percentage increase in the area of the EPSP response)” value (AMPA receptors [2]; 30 μM) read?
The value was 10%.

— patent publication US6124278A, “Acylbenzoxazines for enhancing synaptic response” (The Regents of the University of California, priority 1998, dated 2000)
